Test results as given in US9204653B2, “5-fluoro pyrimidine derivatives” (DOW AGROSCIENCES LLC, priority 2008, dated 2015).
Like-named read-outs stand apart in the source and are kept apart here.

System: Mycosphaerella graminicola; Anamorph: Septoria tritici; Bayer Code SEPTTR
Test: Leaf blotch of wheat, foliar fungicide treatment, one day protectant (1DP) or three day curative (3DC)
Format: in vivo, Septoria tritici on wheat plants (variety Yuma)
Details: Zymoseptoria tritici; for pest or weed control at 50 ppm / pest or weed control at 200 ppm: % disease control rating
[1] = 24 h, one day protectant (1DP), 25 ppm, rating of percent disease control, read-out: SETTTR 1DP 25 ppm
[2] = 24 h, one day protectant (1DP), rating of percent disease control, read-out: SEPTTR 1DP 100 ppm
[3] = 72 h, three day curative (3DC), 25 ppm, rating of percent disease control, read-out: SEPTTR 3DC 25 ppm
[4] = 72 h, three day curative (3DC), rating of percent disease control, read-out: SEPTTR 3DC 100 ppm
[5] = 24 h, one day protectant (1DP), 25 ppm (first 1DP column), percent control rating, read-out: SETTTR 1DP 25 ppm
[6] = 24 h, one day protectant (1DP), 25 ppm as printed (second 1DP column), percent control rating, read-out: SETTTR 1DP 25 ppm
[7] = 72 h, three day curative (3DC), 25 ppm, percent control rating, read-out: SEPTTR 3DC 25 ppm
[8] = 72 h, three day curative (3DC), percent control rating, read-out: SEPTTR 3DC 100 ppm
[9] = 24 h, one day protectant, 25 ppm, rating of percent disease control, read-out: SETTTR 1DP 25 ppm
[10] = 24 h, one day protectant, rating of percent disease control, read-out: SEPTTR 1DP 100 ppm
[11] = 72 h, three day curative, 25 ppm, rating of percent disease control, read-out: SEPTTR 3DC 25 ppm
[12] = 72 h, three day curative, rating of percent disease control, read-out: SEPTTR 3DC 100 ppm
[13] = 24 h, one day protectant (1DP), 25 ppm, percent disease control rating, read-out: SETTTR 1DP 25 ppm
[14] = 24 h, one day protectant (1DP), percent disease control rating, read-out: SEPTTR 1DP 100 ppm
[15] = 72 h, three day curative (3DC), 25 ppm, percent disease control rating, read-out: SEPTTR 3DC 25 ppm
[16] = 72 h, three day curative (3DC), percent disease control rating, read-out: SEPTTR 3DC 100 ppm

CC#CCOc1ncc(F)c(NC(C)=O)n1 [Compound 745]
pest or weed control at 25 ppm [1]: 76 to 100%
pest or weed control at 100 ppm [2]: 76 to 100%
pest or weed control at 25 ppm [3]: 76 to 100%
pest or weed control at 100 ppm [4]: 76 to 100%

Cc1ccc(CNc2nc(OC3CCCCC3)ncc2F)cc1 [Compound 875]
pest or weed control at 50 ppm (24 h, one day protectant): 0 to 25%
pest or weed control at 200 ppm (24 h, one day protectant): 76 to 100%

Cc1ccc(COc2ncc(F)c(NO)n2)cc1 [Compound 325]
pest or weed control at 25 ppm [1]: 76 to 100%
pest or weed control at 100 ppm [2]: 76 to 100%
pest or weed control at 25 ppm [3]: 76 to 100%
pest or weed control at 100 ppm [4]: 76 to 100%

Cc1noc(-c2ccccc2COc2ncc(F)c(N)n2)n1 [Compound 486]
pest or weed control at 25 ppm [1]: 0 to 25%
pest or weed control at 100 ppm [2]: 0 to 25%
pest or weed control at 25 ppm [3]: 26 to 50%
pest or weed control at 100 ppm [4]: 26 to 50%

CCCNC(=S)Nc1nc(OCc2ccccc2OC)ncc1F [Compound 475]
pest or weed control at 25 ppm [1]: 51 to 75%
pest or weed control at 100 ppm [2]: 76 to 100%
pest or weed control at 25 ppm [3]: 51 to 75%
pest or weed control at 100 ppm [4]: 76 to 100%

CC(=O)OCOc1ncc(F)c(/N=C/N(C)C)n1 [Compound 1083]
pest or weed control at 25 ppm [5]: 76 to 100%
pest or weed control at 25 ppm [6]: 76 to 100%
pest or weed control at 25 ppm [7]: 76 to 100%
pest or weed control at 100 ppm [8]: 76 to 100%

CNN(C)c1nc(OCc2ccc(F)cc2)ncc1F [Compound 397]
pest or weed control at 25 ppm [1]: 0 to 25%
pest or weed control at 100 ppm [2]: 0 to 25%
pest or weed control at 25 ppm [3]: 0 to 25%
pest or weed control at 100 ppm [4]: 0 to 25%

Nc1nc(OCc2cccnc2Cl)ncc1F [Compound 580]
pest or weed control at 25 ppm [9]: 51 to 75%
pest or weed control at 100 ppm [10]: 76 to 100%
pest or weed control at 25 ppm [11]: 0 to 25%
pest or weed control at 100 ppm [12]: 51 to 75%

Cc1ccc(C(C)C)cc1C(C)Oc1ncc(F)c(N)n1 (centres unmarked) [Compound 617]
pest or weed control at 25 ppm [9]: 76 to 100%
pest or weed control at 100 ppm [10]: 76 to 100%
pest or weed control at 25 ppm [11]: 76 to 100%
pest or weed control at 100 ppm [12]: 76 to 100%

O=[N+]([O-])c1ccccc1SNc1nc(OCc2ccccc2)ncc1F [Compound 558]
pest or weed control at 25 ppm [9]: 76 to 100%
pest or weed control at 100 ppm [10]: 76 to 100%
pest or weed control at 25 ppm [11]: 26 to 50%
pest or weed control at 100 ppm [12]: 26 to 50%

Cc1ccc(COc2ncc(F)c(NCc3ccc4c(c3)OCO4)n2)cc1 [Compound 854]
pest or weed control at 50 ppm (24 h, one day protectant): 51 to 75%
pest or weed control at 200 ppm (24 h, one day protectant): 76 to 100%

COc1cccc(COc2ncc(F)c(NNc3nc4ccccc4s3)n2)c1 [Compound 1046]
pest or weed control at 25 ppm [5]: 0 to 25%
pest or weed control at 25 ppm [6]: 0 to 25%
pest or weed control at 25 ppm [7]: 0 to 25%
pest or weed control at 100 ppm [8]: 0 to 25%

COCCCOc1ncc(F)c(/N=C/N(C)C)n1 [Compound 457]
pest or weed control at 25 ppm [1]: 51 to 75%
pest or weed control at 100 ppm [2]: 76 to 100%
pest or weed control at 25 ppm [3]: 51 to 75%
pest or weed control at 100 ppm [4]: 76 to 100%

Fc1cccc(COc2ncc(F)c(/N=C/N3CCOCC3)n2)c1 [Compound 684]
pest or weed control at 25 ppm [9]: 76 to 100%
pest or weed control at 100 ppm [10]: 76 to 100%
pest or weed control at 25 ppm [11]: 76 to 100%
pest or weed control at 100 ppm [12]: 76 to 100%

Nc1nc(SCc2ccc(F)cc2)ncc1F [Compound 100]
pest or weed control at 25 ppm [13]: 0 to 25%
pest or weed control at 100 ppm [14]: 0 to 25%
pest or weed control at 25 ppm [15]: 0 to 25%
pest or weed control at 100 ppm [16]: 0 to 25%

Cc1cnc(CNc2nc(OCc3cccs3)ncc2F)cn1 [Compound 822]
pest or weed control at 50 ppm (24 h, one day protectant): 26 to 50%
pest or weed control at 200 ppm (24 h, one day protectant): 76 to 100%

CC(C)(C)C(=O)OCOc1ncc(F)c(NC=O)n1 [Compound 1113]
pest or weed control at 25 ppm [5]: 76 to 100%
pest or weed control at 25 ppm [6]: 76 to 100%
pest or weed control at 25 ppm [7]: 76 to 100%
pest or weed control at 100 ppm [8]: 76 to 100%

Fc1cnc(OCc2ccc(C(F)(F)F)cc2)nc1NC1CC1 [Compound 819]
pest or weed control at 200 ppm (24 h, one day protectant): 76 to 100%

CCCNC(=O)Nc1nc(OCc2ccc(OC)c(F)c2)ncc1F [Compound 170]
pest or weed control at 25 ppm [13]: 0 to 25%
pest or weed control at 100 ppm [14]: 0 to 25%
pest or weed control at 25 ppm [15]: 0 to 25%
pest or weed control at 100 ppm [16]: 0 to 25%

CCC(C)C(Oc1ncc(F)c(N)n1)c1ccc(F)cc1 (centres unmarked) [Compound 403]
pest or weed control at 25 ppm [1]: 76 to 100%
pest or weed control at 100 ppm [2]: 76 to 100%
pest or weed control at 25 ppm [3]: 26 to 50%
pest or weed control at 100 ppm [4]: 76 to 100%
